Assay results as given in patent publication US8481551B2, “Gyrase and topoisomerase IV inhibitors” (Vertex Pharmaceuticals Incorporated, priority 2011, dated 2013).
Counter-ions that a name gives are not always drawn. Like-named read-outs stand apart in the source and are kept apart here.

Assays:
[1] = tested on: Haemophilus influenzae; experiment: Gyrase MIC against Gram negatives, microdilution broth method (Protocol 2); assay type: cell-based
[2] = tested on: Escherichia coli; experiment: as above; assay type: cell-based
[3] = tested on: Neisseria gonorrhoeae; experiment: Gyrase MIC, agar dilution method (Protocol 3); assay type: cell-based
[4] = tested on: Clostridium perfringens; experiment: microbe, parasite or virus in culture; assay type: cell-based
[5] = tested on: N. asteroids; experiment: MIC determination procedure for Mycobacterium species (Protocol 4); assay type: cell-based; conditions: N. asteroids 2039
[6] = tested on: Mycobacterium tuberculosis; experiment: Mycobacterium tuberculosis serum shift MIC assay (Protocol 5); assay type: cell-based; conditions: ATCC 35801 / ERDMAN
From the text: Protocol 5. Protocol for Mycobacterium tuberculosis Serum Shift MIC Assay
Media Prep: • 1. […] It was important that all media and supplements were sterilized prior to MICs. • 2. Prepared all media below and inoculated as described in next section. Tested all compounds against Mtb using each media. • a. […] 7H9+0.2% glycerol+2 g/L dextrose+0.85 g/L NaCl+0.003 g/L catalase (0% FBS). • c. 2×7H9+0.2% glycerol+2 g/L dextrose+0.85 g/L NaCl+0.003 g/L catalase combined with equal volume Fetal Bovine Serum (50% FBS).
Inoculum Prep: • 1. […] Typically plates were two to three weeks of age when used for this assay due to the slow growth of this organism in culture. • 2. Vortexed well, then sonicated in water bath for 30 sec providing a suspension of ˜10^8 cells/ml. […] Prepared inoculum in each of the three media formulations by diluting the BBL Prompt suspension 1/200 (for example: transferred 0.2 ml of cells to 40 ml of medium) to obtain a starting cell density of ˜10^6 cells/ml. • 4.
After 24 hours the fluorescence of each well was measured at Excitation 492 nm, Emission 595 nm.
Percent inhibition by a given compound was calculated as follows: Percent inhibition=100−([well fluorescence-average background fluorescence]/[DMSO control−average background fluorescence]×100).

[7] = tested on: Pseudomonas aeruginosa; experiment: Gyrase MIC against Gram negatives, microdilution broth method (Protocol 2)
[8] = tested on: S. aureus (ATCC 29213); experiment: Mouse S. aureus kidney infection model; assay type: in vivo, CD-1 mice; conditions: after 24 hours
Experimental: Animals: female CD-1 mice (8-10 weeks of age; 6/group), were obtained from Charles River Laboratories and were housed and maintained in accordance with the Guide to the Care and Use of Experimental Animals. Methicillin-sensitive S. aureus (MSSA) strain ATCC 29213 was obtained from the American Type Culture Collection. To prepare stocks for animal studies S. aureus was plated on Mueller Hinton Agar plates and incubated at 37° C. overnight. 3-4 colonies from the plate were used to inoculate 5 mL Mueller Hinton Broth (MHB) that was incubated for 8 hours at 37° C. with shaking at 300 RPM. The 5 mL 8-hour culture was diluted 20-fold into 100 mL and incubated overnight (12-14 hours). The bacteria were pelleted for 20 minutes at 3000× and washed twice with Phosphate-Buffered Saline (PBS) containing 0.5% Bovine Serum Albumin (BSA). Aliquots (1 mL) containing ˜1×10^10 cfu in PBS/20% Glycerol were frozen and stored at −80° C. until the day of use. Stock titers were confirmed by serial dilution and plating on Mueller Hinton agar plates. Prior to inoculation, bacterial stocks were thawed and washed once with PBS/BSA. The stocks were then diluted with PBS/BSA to a final concentration of 1×10^9 cfu/mL to give an inoculum of approximately 1-2×10^8 cfu per mouse in a volume of 100 uL. […] Injections were given intravenously via the tail vein using a sterile 30 gauge needle. Upon completion of the mouse infections, the bacterial stocks used to challenge the mice were plated and counted to verify the concentration of the inocula. […] Fisher Scientific). During collection and homogenization all of the samples were kept on ice and the homogenizer was washed thoroughly and sterilized between each sample. Homogenates were serially diluted in sterile PBS/BSA and plated on MH agar to determine bacterial counts per pair of kidneys. CD-1 mice (6/group) were challenged IV with S. aureus (ATCC 29213) at 2×10^8 cfu/mouse. […] The 30-minute and 6-hour treatment groups were treated once, while the 24-hour group received a second treatment 10 hours after the first dose. […] Burdens from pairs of kidneys for each mouse and the median for each group of mice were calculated. CD-1 mice (6/group) were challenged IV with S. aureus (ATCC 29213) at 2×10^8 cfu/mouse. After 2 hours a single group of mice (Early Control (EC)) was euthanized and the kidneys harvested, homogenized and plated to quantitate S. aureus burdens. The additional groups of infected mice were treated via oral gavage with Vehicle at 10 ml/kg (10% VitE TPGS; […] After 24 hours the groups of treated mice were euthanized and the kidneys harvested, homogenized and plated to quantitate S. aureus burdens. Burdens from pairs of kidneys for each mouse and the median for each group of mice were summarized. CD-1 mice (8/group) were challenged IV with S. aureus (ATCC 29213) at 2×10^8 cfu/mouse. After 2 hours a single group of mice (Early Control (EC)) was euthanized and the kidneys harvested, homogenized and plated to quantitate S. aureus burdens. The additional groups of infected mice were treated via oral gavage with Vehicle at 10 ml/kg (Water; […] After 24 hours the groups of treated mice were euthanized and the kidneys harvested, homogenized and plated to quantitate S. aureus burdens. Burdens from pairs of kidneys for each mouse and the median for each group of mice were summarized.

[9] = Haemophilus influenzae Rd0894 (AcrA-)
[10] = Haemophilus influenzae, 55 isolates tested
[11] = Neisseria gonorrhoeae, 13 isolates tested
[12] = single oral dose 16 (10) mg/kg Compound W
[13] = single oral dose 49 (30) mg/kg Compound W
[14] = single oral dose 99 (60) mg/kg Compound W
[15] = single oral dose 166 (100) mg/kg Compound W

CCNC(=O)Nc1nc2cc(-c3cnc(C(C)(C)O)nc3)cc([C@H]3CCCO3)c2[nH]1 [Compound 13, methanesulfonic acid salt of 1-ethyl-3-[5-[2-(1-hydroxy-1-methyl-ethyl)pyrimidin-5-yl]-7-[(2R)-tetrahydrofuran-2-yl]-1H-benzimidazol-2-yl]urea]
MIC ([1]; ATCC49247, Haemophilus influenzae ATCC 49247): 1 µg/mL | MIC [1, 9]: 0.14 µg/mL | MIC90 [1, 10]: 2 µg/mL | MIC Range [1, 10]: 0.25 to 8 µg/mL | MIC90 ([2]; 12 isolates tested): > 8 µg/mL | MIC ([2]; ATCC25922, Escherichia coli ATCC 25922): 16 µg/mL | MIC ([2]; Escherichia coli AG100 WT): > 16 µg/mL | MIC ([2]; Escherichia coli AG100 tolC): 0.11 µg/mL | MIC ([2]; Escherichia coli CHE30): > 16 µg/mL | MIC ([2]; Escherichia coli CHE30 tolC): 0.5 µg/mL | MIC ([2]; Escherichia coli MC4100): > 16 µg/mL | MIC ([2]; Escherichia coli MC4100 tolC): 1 µg/mL | MIC ([3]; ATCC35541, Neisseria gonorrhoeae ATCC 35541): 1.3 µg/mL | MIC ([3]; ATCC49226, Neisseria gonorrhoeae ATCC 49226): 2.3 µg/mL | MIC90 [3, 11]: 1 µg/mL | MIC Range [3, 11]: 0.5-1^ μg/ml | MIC90 [4]: 0.5 µg/mL | MIC [5]: 8 µg/mL | MIC ([6]; M. tuberculosis Erdman ATCC 35801, read-out: MIC): 0.045 µg/mL | MIC ([6]; M. tuberculosis Erdman ATCC 35801 with Mouse Serum): 2 µg/mL | MIC [7]: 0.33 µg/mL | MIC90 [7]: > 8 µg/mL | MIC ([7]; PAO1): > 16 µg/mL

CCNC(=O)Nc1nc2cc(-c3cnc(C(C)(C)OP(=O)([O-])[O-])nc3)c(F)c([C@H]3CCCO3)c2[nH]1.[Na+].[Na+] [Compound W, disodium (R)-2-(5-(2-(3-ethylureido)-6-fluoro-7-(tetrahydrofuran-2-yl)-1H-benzo[d]imidazol-5-yl)pyrimidin-2-yl)propan-2-yl phosphate]
MIC [1, 9]: 0.25 µg/mL | MIC ([2]; Escherichia coli AG100 WT): > 16 µg/mL | Median Kidney Burden (Log10 CFU/kidneys) ([8]; single oral dose 16 (10) mg/kg Compound W (dose equivalent in brackets)): 3.69 Log10 CFU/kidneys | Log10 Difference vs. Early Control [8, 12]: −0.71 | Log10 Difference vs. Late Control [8, 12]: −2.25 | Log10 Difference vs. Early Control [8, 13]: −1.18 | Log10 Difference vs. Late Control [8, 13]: −2.72 | Median Kidney Burden (Log10 CFU/kidneys) [8, 13]: 3.22 Log10 CFU/kidneys | Log10 Difference vs. Early Control [8, 14]: −1.08 | Log10 Difference vs. Late Control [8, 14]: −2.62 | Median Kidney Burden (Log10 CFU/kidneys) [8, 14]: 3.32 Log10 CFU/kidneys | Log10 Difference vs. Early Control [8, 15]: −1.46 | Log10 Difference vs. Late Control [8, 15]: −3.00 | Median Kidney Burden (Log10 CFU/kidneys) [8, 15]: 2.94 Log10 CFU/kidneys | reduction of bacterial burdens versus the early control ([8]; single oral doses of 16, 49, 99 and 166 mg/kg Compound W): 0.7-1.5 logs
